Assay results reported in patent US20230265151A1, “GIP/GLP1 CO-AGONIST COMPOUNDS” (priority 2020, published 2023).
Like-named read-outs stand apart in the source and are kept apart here. *1 amine or outer side, *2 acyl side, *3 side chain or, on linkers, in order; H or OH if unused. Where a SMILES comes first, the peptide text is derived from it. Side-chain parts run from the residue outwards. [ ]: non-standard residue; d: D form. The star is where a group is joined. Decanoyl(10-(4-HOOC-PhO)) = O=C(O)c1ccc(OCCCCCCCCCC(=O)*)cc1; αMePhe(2-F) = C[C@](N)(Cc1ccccc1F)C(=O)O; γGlu = O=C(O)[C@H](CCC(=O)[*:2])N[*:1]; αMeY = C[C@](N)(Cc1ccc(O)cc1)C(=O)O; 4Pal = N[C@@H](Cc1ccncc1)C(=O)O; αMeL = CC(C)C[C@](C)(N)C(=O)O; Lauroyl = CCCCCCCCCCCC(=O)*; Orn = NCCC[C@H](N)C(=O)O; AEEA = NCCOCCOCC(=O)O; Aib = CC(C)(N)C(=O)O

Tests used:
Format in all cases: cell-based
hGCGR = target: T1, hGCGR (Homo sapiens, UniProt P47871); assay: Functional cAMP formation (HTRF) in HEK-293 clonal cells expressing hGCGR, 0.1% bovine casein, without or with 1.0% human serum albumin; details: geometric mean
T1 construct: expressed in transfected cells
Procedure, shortened: (§1)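 Cells were stimulated with peptide for 30 min at 37° C, then lysed in buffer carrying cAMP-d2 and anti-cAMP Eu3+-cryptate for a competitive HTRF read after at least 60 min at room temperature. The 665/620 nm ratio was converted to nM cAMP against a standard curve.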

hGIPR = target: T2, hGIPR (Homo sapiens, UniProt P48546); assay: Functional cAMP formation (HTRF) in HEK-293 clonal cells expressing hGIPR, 0.1% bovine casein, without or with 1.0% human serum albumin; details: for Emax: percent of maximal response to GIP(1-42)NH2; for EC50: geometric mean
T2 construct: expressed in transfected cells
T2 sequence (P48546 22-466): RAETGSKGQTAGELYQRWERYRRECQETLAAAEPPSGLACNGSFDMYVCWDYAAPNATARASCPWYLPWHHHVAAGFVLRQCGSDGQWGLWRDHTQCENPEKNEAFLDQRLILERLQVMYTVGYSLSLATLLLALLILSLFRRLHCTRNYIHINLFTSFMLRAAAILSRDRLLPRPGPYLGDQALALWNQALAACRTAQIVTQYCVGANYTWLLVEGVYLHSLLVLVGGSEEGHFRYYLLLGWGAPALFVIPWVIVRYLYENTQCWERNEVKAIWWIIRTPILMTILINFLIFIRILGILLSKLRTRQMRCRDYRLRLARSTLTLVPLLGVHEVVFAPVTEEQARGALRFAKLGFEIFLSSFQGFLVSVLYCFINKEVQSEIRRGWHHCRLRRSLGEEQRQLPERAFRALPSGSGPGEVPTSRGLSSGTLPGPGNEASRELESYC
Procedure, shortened: as §1

hGLP-1R = hGLP-1R (Homo sapiens, UniProt P43220); assay: Functional cAMP formation (HTRF) in HEK-293 clonal cells expressing hGLP-1R, 0.1% bovine casein, without or with 1.0% human serum albumin; set-up: expressed in transfected cells; details: for EC50: geometric mean; for Emax: 0.1% bovine casein, arithmetic mean
Procedure, shortened: as §1

[1] = 0.1% bovine casein and 1.0% human serum albumin, 37° C., read-out: hGCGR EC50, nM (SEM, n)
[2] = cAMP, 37° C., 0.1% bovine casein (no human serum albumin), read-out: hGCGR EC50, nM (SEM, n)
[3] = cAMP, 37° C., 0.1% bovine casein (no human serum albumin), read-out: hGIPR EC50, nM (SEM, n)
[4] = cAMP, 37° C., 0.1% bovine casein (no human serum albumin), read-out: hGLP-1R EC50, nM (SEM, n)
[5] = hGCGR EC50, nM (SEM, n), cAMP, incubated at 37° C., 0.1% bovine casein (no human serum albumin)
[6] = hGIPR EC50, nM (SEM, n), cAMP, incubated at 37° C., 0.1% bovine casein (no human serum albumin)
[7] = HEK293, read-out: hGLP-1R Emax, % ± SEM, percent of maximal response to GLP-1(7-36)NH2, 37° C.
[8] = hGLP-1R EC50, nM (SEM, n), cAMP, incubated at 37° C., 0.1% bovine casein (no human serum albumin)

Sequence of hGLP-1R (P43220 24-463): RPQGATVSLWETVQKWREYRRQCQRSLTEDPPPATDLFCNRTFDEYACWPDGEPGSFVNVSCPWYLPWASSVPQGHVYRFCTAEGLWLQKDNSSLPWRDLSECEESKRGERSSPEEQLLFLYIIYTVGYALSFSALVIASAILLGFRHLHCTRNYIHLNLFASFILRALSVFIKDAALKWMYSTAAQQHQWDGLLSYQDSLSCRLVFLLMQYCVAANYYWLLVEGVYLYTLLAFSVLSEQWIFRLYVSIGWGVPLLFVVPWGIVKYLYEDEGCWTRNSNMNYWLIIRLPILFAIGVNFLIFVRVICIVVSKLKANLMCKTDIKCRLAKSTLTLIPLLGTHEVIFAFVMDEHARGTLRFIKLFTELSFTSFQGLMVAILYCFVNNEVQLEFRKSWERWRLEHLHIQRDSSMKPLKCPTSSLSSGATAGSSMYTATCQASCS
T1 sequence (P47871 26-477): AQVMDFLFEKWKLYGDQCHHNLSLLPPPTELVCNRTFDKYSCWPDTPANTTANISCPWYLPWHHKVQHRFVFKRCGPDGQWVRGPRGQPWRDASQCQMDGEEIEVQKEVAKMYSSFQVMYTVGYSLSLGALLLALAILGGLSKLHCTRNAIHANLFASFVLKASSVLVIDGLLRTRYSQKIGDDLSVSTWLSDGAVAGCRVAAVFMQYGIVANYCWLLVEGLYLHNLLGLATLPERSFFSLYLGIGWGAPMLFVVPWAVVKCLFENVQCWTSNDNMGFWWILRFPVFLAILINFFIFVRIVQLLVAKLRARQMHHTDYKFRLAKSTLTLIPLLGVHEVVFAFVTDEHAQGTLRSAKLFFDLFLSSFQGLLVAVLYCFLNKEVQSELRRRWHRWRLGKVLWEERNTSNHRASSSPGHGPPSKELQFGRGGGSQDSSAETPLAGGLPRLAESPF

EC50 (hGIPR; 0.1% bovine casein and 1.0% human serum albumin, 37° C., read-out: hGIPR EC50, nM (SEM, n)) | EC50 (hGLP-1R; 0.1% bovine casein and 1.0% human serum albumin, 37° C., read-out: hGLP-1R EC50, nM (SEM, n)) | Emax (hGLP-1R; HEK293, cAMP, 37° C., percent of maximal response to GLP-1(7-36)NH2, read-out: hGLP-1R Emax, % ± SEM) | Structure (SMILES) | EC50 (hGCGR; [1]) | EC50 (hGCGR; [2]) | Emax (hGIPR; HEK293, 0.1% bovine casein and 1.0% human serum albumin, 37° C., read-out: hGIPR Emax, % ± SEM) | EC50 (hGIPR; [3]) | EC50 (hGLP-1R; [4]) | EC50 (hGCGR; hGCGR EC50, nM (SEM, n), 0.1% bovine casein and 1.0% human serum albumin, 37° C.) | EC50 (hGCGR; [5]) | Emax (hGIPR; HEK293, read-out: hGIPR Emax, % ± SEM, 0.1% bovine casein and 1.0% human serum albumin, 37° C.) | EC50 (hGIPR; [6]) | Emax (hGLP-1R; [7]) | EC50 (hGLP-1R; hGLP-1R EC50, nM (SEM, n), 0.1% bovine casein and 1.0% human serum albumin, 37° C.) | EC50 (hGLP-1R; [8])
– | – | – | CC[C@H](C)[C@H](NC(=O)[C@H](CC(C)C)NC(=O)[C@](C)(Cc1ccc(O)cc1)NC(=O)[C@@H](CCC(=O)O)NC(=O)[C@@H](NC(=O)[C@H](Cc1ccccc1)NC(=O)[C@H](CCCCNC(=O)COCCOCCNC(=O)COCCOCCNC(=O)CC[C@H](NC(=O)CCCCCCCCCCCCC(=O)O)C(=O)O)NC(=O)C(C)(C)NC(=O)[C@H](CCC(N)=O)NC(=O)[C@H](C)NC(=O)[C@H](CCCCNC(=O)COCCOCCNC(=O)COCCOCCNC(=O)CC[C@H](NC(=O)CCCCCCCCCCCCC(=O)O)C(=O)O)NC(=O)[C@H](CCCN)NC(=O)[C@H](CC(=O)O)NC(=O)[C@H](CC(C)C)NC(=O)[C@](C)(CC(C)C)NC(=O)[C@@H](NC(=O)C(C)(C)NC(=O)[C@@H](NC(=O)[C@H](CC(=O)O)NC(=O)[C@H](CO)NC(=O)[C@@H](NC(=O)[C@](C)(Cc1ccccc1F)NC(=O)[C@@H](NC(=O)CNC(=O)[C@H](CCC(=O)O)NC(=O)C(C)(C)NC(=O)[C@@H](N)Cc1ccc(O)cc1)[C@@H](C)O)[C@@H](C)O)C(C)C)[C@@H](C)CC)[C@@H](C)CC)C(=O)N[C@@H](CCC(=O)O)C(=O)NCC(=O)NCC(=O)N1CCC[C@H]1C(=O)N[C@@H](CO)C(=O)N[C@@H](CO)C(=O)NCC(=O)N[C@@H](C)C(=O)N1CCC[C@H]1C(=O)N1CCC[C@H]1C(=O)N1CCC[C@H]1C(=O)N[C@@H](CO)C(N)=O [Example 318] | > 9950 nM | > 9950 nM | 91.4% | 0.0402 nM | 0.219 nM | – | – | – | – | – | – | –
– | – | – | CC[C@H](C)[C@H](NC(=O)[C@H](CCCN)NC(=O)[C@H](CC(=O)O)NC(=O)[C@H](CC(C)C)NC(=O)[C@](C)(CC(C)C)NC(=O)[C@@H](NC(=O)C(C)(C)NC(=O)[C@H](Cc1ccc(O)cc1)NC(=O)[C@H](CC(=O)O)NC(=O)[C@H](CO)NC(=O)[C@@H](NC(=O)[C@](C)(Cc1ccccc1F)NC(=O)[C@@H](NC(=O)CNC(=O)[C@H](CCC(=O)O)NC(=O)C(C)(C)NC(=O)[C@@H](N)Cc1ccc(O)cc1)[C@@H](C)O)[C@@H](C)O)[C@@H](C)CC)C(=O)N[C@@H](C)C(=O)N[C@@H](CCC(N)=O)C(=O)NC(C)(C)C(=O)N[C@@H](CCCCNC(=O)COCCOCCNC(=O)COCCOCCNC(=O)CC[C@H](NC(=O)CCCCCCCCCOc1ccc(C(=O)O)cc1)C(=O)O)C(=O)N[C@@H](Cc1ccccc1)C(=O)N[C@H](C(=O)N[C@H](CCC(=O)O)C(=O)N[C@@](C)(Cc1ccc(O)cc1)C(=O)N[C@@H](CC(C)C)C(=O)N[C@H](C(=O)N[C@@H](CCCCNC(=O)COCCOCCNC(=O)COCCOCCNC(=O)CC[C@H](NC(=O)CCCCCCCCCOc1ccc(C(=O)O)cc1)C(=O)O)C(=O)NCC(=O)NCC(=O)N1CCC[C@H]1C(=O)N[C@@H](CO)C(=O)N[C@@H](CO)C(=O)NCC(=O)N[C@@H](C)C(=O)N1CCC[C@H]1C(=O)N1CCC[C@H]1C(=O)N1CCC[C@H]1C(=O)N[C@@H](CO)C(N)=O)[C@@H](C)CC)[C@@H](C)CC [Example 240] (H-Y[Aib]EGT[αMePhe(2-F)]TSDY[Aib]I[αMeL]LD[Orn]IAQ[Aib]K([AEEA-AEEA-γGlu-Decanoyl(10-(4-HOOC-PhO))])FI[dE][αMeY]LIK([AEEA-AEEA-γGlu-Decanoyl(10-(4-HOOC-PhO))])GGPSSGAPPPS-NH2) | – | – | – | – | – | > 9950 nM | > 9950 nM | 87.2% | 0.0237 nM | 98.5% | 150 nM | 0.508 nM
1.09 nM | 10.4 nM | 109% | CCCCCCCCCCCC(=O)N[C@@H](CCC(=O)NCCOCCOCC(=O)NCCOCCOCC(=O)NCCCC[C@H](NC(=O)[C@H](CCCN)NC(=O)[C@H](CC(=O)O)NC(=O)[C@H](CC(C)C)NC(=O)[C@](C)(CC(C)C)NC(=O)[C@@H](NC(=O)[C@H](CO)NC(=O)[C@H](Cc1ccncc1)NC(=O)[C@H](CC(=O)O)NC(=O)[C@H](CO)NC(=O)[C@@H](NC(=O)[C@](C)(Cc1ccccc1F)NC(=O)[C@@H](NC(=O)CNC(=O)[C@H](CCC(=O)O)NC(=O)C(C)(C)NC(=O)[C@@H](N)Cc1ccc(O)cc1)[C@@H](C)O)[C@@H](C)O)[C@@H](C)CC)C(=O)N[C@@H](C)C(=O)N[C@@H](CCC(N)=O)C(=O)NC(C)(C)C(=O)N[C@@H](CCCCNC(=O)COCCOCCNC(=O)COCCOCCNC(=O)CC[C@H](NC(=O)CCCCCCCCCCC)C(=O)O)C(=O)N[C@@H](Cc1ccccc1)C(=O)N[C@H](C(=O)N[C@H](CCC(=O)O)C(=O)N[C@@](C)(Cc1ccc(O)cc1)C(=O)N[C@@H](CC(C)C)C(=O)N[C@H](C(=O)N[C@@H](CCC(=O)O)C(=O)NCC(=O)NCC(N)=O)[C@@H](C)CC)[C@@H](C)CC)C(=O)O [Example 295] (H-Y[Aib]EGT[αMePhe(2-F)]TSD[4Pal]SI[αMeL]LD[Orn]K([AEEA-AEEA-γGlu-Lauroyl])AQ[Aib]K([AEEA-AEEA-γGlu-Lauroyl])FI[dE][αMeY]LIEGG-NH2; N-terminus assumed) | > 9950 nM | > 9950 nM | – | 0.0141 nM | 0.167 nM | – | – | – | – | – | – | –
– | – | – | CC[C@H](C)[C@H](NC(=O)[C@H](CC(C)C)NC(=O)[C@](C)(Cc1ccc(O)cc1)NC(=O)[C@H](CCCCNC(=O)COCCOCCNC(=O)COCCOCCNC(=O)CC[C@H](NC(=O)CCCCCCCCCCCCC(=O)O)C(=O)O)NC(=O)[C@@H](NC(=O)[C@H](Cc1ccccc1)NC(=O)[C@H](CCC(=O)O)NC(=O)C(C)(C)NC(=O)[C@H](CCC(N)=O)NC(=O)[C@H](C)NC(=O)[C@H](CCCCNC(=O)COCCOCCNC(=O)COCCOCCNC(=O)CC[C@H](NC(=O)CCCCCCCCCCCCC(=O)O)C(=O)O)NC(=O)[C@H](CCCN)NC(=O)[C@H](CC(=O)O)NC(=O)[C@H](CC(C)C)NC(=O)[C@](C)(CC(C)C)NC(=O)[C@@H](NC(=O)C(C)(C)NC(=O)[C@@H](NC(=O)[C@H](CC(=O)O)NC(=O)[C@H](CO)NC(=O)[C@@H](NC(=O)[C@](C)(Cc1ccccc1F)NC(=O)[C@@H](NC(=O)CNC(=O)[C@H](CCC(=O)O)NC(=O)C(C)(C)NC(=O)[C@@H](N)Cc1ccc(O)cc1)[C@@H](C)O)[C@@H](C)O)C(C)C)[C@@H](C)CC)[C@@H](C)CC)C(=O)N[C@@H](CCC(=O)O)C(=O)NCC(=O)NCC(=O)N1CCC[C@H]1C(=O)N[C@@H](CO)C(=O)N[C@@H](CO)C(=O)NCC(=O)N[C@@H](C)C(=O)N1CCC[C@H]1C(=O)N1CCC[C@H]1C(=O)N1CCC[C@H]1C(=O)N[C@@H](CO)C(N)=O [Example 115] | – | – | – | – | – | – | > 9950 nM | – | 0.103 nM | 91.6% | – | 0.16 nM
